In patent US5082926A, “Polypeptide with type IV collagen cell adhesion, spreading and motility activity” (Regents of the University of Minnesota, priority 1989, dated 1992):
Residues, ends and D or L forms follow the SMILES beside them.

What was measured:
[1] = system: M4 melanoma cells; settings: 50 μg/ml
Protocol: The collagen coating concentration (5 μg/ml) was chosen based on the concentration which yielded half-maximal levels of cellular motility. The inhibitory effect of the peptides on cell motility was determined by preincubating the cells with increasing concentrations of the peptides for 20 min. prior to the assay to allow for binding to cell surface receptors. Cells in the continued presence of peptides were then added to the upper wells of chambers containing the protein-coated filters.

[2] = system: K 1735 M4 melanoma cells; experiment: Melanoma cell adhesion and spreading on peptide-coated Immulon 1 wells; assay type: cell-based, mouse; settings: K1735 M4 melanoma; surface coated at 100 μg/ml; average of three experiments
Protocol: Subconfluent cultures of M4 melanoma cells were radiolabeled overnight with 2 μCi/ml ^3 H-thymidine. […] The melanoma cells were then washed and resuspended to a final concentration of 3-4×10^4 cells/ml in DME supplemented with 20 mM Hepes and 10 mg/ml BSA. The cells remained viable (>95%) after this procedure, based upon exclusion of trypan blue dye.
(§1) Immulon 1 microtiter plates were prepared by drying down 100 μl/well of IV-H1 peptide which had been diluted to various concentrations (1-500 μg/ml) in Voller's carbonate buffer. The ability of the IV-H1 peptide to bind the plates was determined using radioiodinated peptides (described previously) in order to be certain that any differences in cell adhesion (or spreading) were not due to differential binding to surfaces. Nonspecific cell adhesion to sites on the plastic was blocked by the use of a 10 mg/ml solution of BSA in Voller's carbonate buffer at 37° C. for 1 hr. […] Adhesion was quantitated after washing to remove nonadherent and weakly adherent cells, by solubilizing the cells with 150 μl/well of 0.5N NaOH containing 1% SDS. Bound radioactivity was quantitated in a Beckman LS 3801 liquid scintillation counter. […] Each experiment was repeated a minimum of three times, and within a given experiment, each experimental point was determined in triplicate.

[3] = system: Bovine aortic endothelial cells; experiment: Cell adhesion and spreading on coated peptide IV-H1 or type IV collagen; assay type: cell-based; settings: surface coated at 100 μg/ml
Protocol: (§2) To characterize peptide IV-H1, the interaction of the peptide with other cell lines was investigated. These cell lines include the highly metastatic human melanoma cell line A375 M (also provided by Dr. Fidler), which was maintained in MEM with added vitamins and 10% FBS; and the fibrosarcoma cell line UV2237 MM, which was maintained in DME with 10% FBS. […]
as §1, with “surfaces.” for “surfaces. Nonspecific cell adhesion to sites on the plastic was blocked by the use of a 10 mg/ml solution of BSA in Voller's carbonate buffer at 37° C. for 1 hr.”, “triplicate. […]” for “triplicate.”

[4] = system: A375 M melanoma; experiment: as above; assay type: cell-based, human; settings: surface coated at 100 μg/ml
Protocol: as §2
as §1, with “surfaces.” for “surfaces. Nonspecific cell adhesion to sites on the plastic was blocked by the use of a 10 mg/ml solution of BSA in Voller's carbonate buffer at 37° C. for 1 hr.”, “triplicate. […]” for “triplicate.”

[5] = system: Squamous carcinoma cell line (SCC9); experiment: as above; assay type: cell-based, human; settings: surface coated at 100 μg/ml
Protocol: as §2
as §1, with “surfaces.” for “surfaces. Nonspecific cell adhesion to sites on the plastic was blocked by the use of a 10 mg/ml solution of BSA in Voller's carbonate buffer at 37° C. for 1 hr.”, “triplicate. […]” for “triplicate.”

[6] = system: UV 2237 fibrosarcoma; experiment: as above; assay type: cell-based, murine; settings: surface coated at 100 μg/ml
Protocol: as §2
as §1, with “surfaces.” for “surfaces. Nonspecific cell adhesion to sites on the plastic was blocked by the use of a 10 mg/ml solution of BSA in Voller's carbonate buffer at 37° C. for 1 hr.”, “triplicate. […]” for “triplicate.”

[7] = system: B104 neuroblastoma; experiment: as above; assay type: cell-based, rat; settings: surface coated at 100 μg/ml
Text: (§3) To characterize peptide IV-H1, the interaction of the peptide with other cell lines was investigated. These cell lines include the highly metastatic human melanoma cell line A375 M (also provided by Dr. Fidler), which was maintained in MEM with added vitamins and 10% FBS; and the fibrosarcoma cell line UV2237 MM, which was maintained in DME with 10% FBS. Other cell lines studied included: the C6 rat glioma cell line (ATCC, #CCL107), which was maintained in DME plus 10% CS; the SCC9 human squamous carcinoma cell line (ATCC, #CRL1629), which was maintained in a 1:1 solution of DME and HAM F12 containing 10% FBS; the B65 and B104 murine neuroblastoma cell lines which were obtained from Dr. David Schubert at the Salk Institute (Schuber et al., Nature, 249, 224-227 (1974)) and maintained in F12H media with supplements; and bovine aortic endothelial cells, which were isolated and maintained as described by Herbst et al., J. Cell Biol., 106, 1365-1373 (1988), the disclosure of which is incorporated by reference herein.
as §1, with “triplicate. […]” for “triplicate.”

[8] = system: B65 neuroblastoma; experiment: as above; assay type: cell-based, rat; settings: surface coated at 100 μg/ml
Text: as §3
as §1, with “triplicate. […]” for “triplicate.”

[9] = system: C6 glioma; experiment: as above; assay type: cell-based, rat; settings: surface coated at 100 μg/ml
Text: as §3
as §1, with “triplicate. […]” for “triplicate.”

[10] = system: M4 melanoma cells; experiment: Melanoma cell motility in microchemotaxis chambers on coated filters; assay type: cell-based, mouse; settings: 10 μg/ml solution
Protocol: In light of the involvement of cell adhesion and spreading in motility, peptide IV-H1 was studied for its ability to directly promote melanoma cell motility. Peptide-mediated M4 melanoma cell motility was examined in 48-well microchemotaxis chambers (Neuroprobe, Bethesda, MD) equipped with 8 μm pore size polyvinylpyrrolidone-free polycarbonate filters by a modification of a procedure described by Herbst et al., supra. Briefly, peptides were diluted in Voller's carbonate buffer and added in triplicate 50 μl aliquots to the lower wells of the chambers. The chambers were assembled with the filters in place and incubated overnight at 37° C. to allow the peptides to adsorb to the lower surfaces of the filters. The filters were then washed and transferred to fresh chambers which contained only media (DME containing 20 mM Hepes, pH 7.4). Cells were then added to the upper wells at 20,000/well in DME/Hepes media and incubated for 6 hr. at 37° C. in a humidified CO2 chamber. Filters were then washed, fixed and stained, and the number of cells which had migrated through the filters was quantitated using an Optomax Image Analysis System as described in Herbst et al., supra. Each experiment was repeated a minimum of three times. […] This compares with melanoma cell motility of 10-fold background levels in response to a 10 μg/ml solution of intact type IV collagen (FIG. 4b).

Molecule | maximal inhibition of type IV collagen-mediated cell motility [1] | % AD (percent of input cells which adhered) [2] | % AD (percent of input cells which adhered) [3] | % AD (percent of input cells which adhered) [4] | % AD (percent of input cells which adhered) [5] | % AD (percent of input cells which adhered) [6] | % AD (percent of input cells which adhered) [7] | % AD (percent of input cells which adhered) [8] | % AD (percent of input cells which adhered) [9] | melanoma cell motility [10]
CC(C)[C@H](NC(=O)CN)C(=O)N[C@@H](CCCCN)C(=O)NCC(=O)N[C@@H](CC(=O)O)C(=O)N[C@@H](CCCCN)C(=O)NCC(=O)N[C@@H](CC(N)=O)C(=O)N1CCC[C@H]1C(=O)NCC(=O)N[C@@H](Cc1c[nH]c2ccccc12)C(=O)N1CCC[C@H]1C(=O)NCC(=O)N[C@@H](C)C(=O)N1CCC[C@H]1C(=O)O [peptide IV-H1, GVKGDKGNPGWPGAP] (H-GVKGDKGNPGWPGAP-OH) | 80% |  |  |  |  |  |  |  |  | 
Type IV Collagen: Type IV collagen extracted from the Englebreth Holm Swarm sarcoma grown in lathyritic mice |  | 61.9% | 52.7% | 50.3% | 39.6% | 7.9% | 18.6% | 7.7% | 100.0% | 10 -fold background levels
